Experimental data taken from patent publication US20250197407A1 (Jazz Pharmaceuticals Ireland Limited, priority 2022, published 2025).

Biological target: SOS1/KRAS WT (Homo sapiens (Human), UniProt Q07889)
Test: SOS1/KRAS WT HTRF binding assay (FRET-based protein-protein interaction)
Settings: inhibition of His6-SOS1 (aa564-1049, 40 nM) binding to GST-KRAS-WT (aa1-188, 40 nM); at least two independent replicates; read-out: SOS1/KRAS WT HTRF Binding assay pIC50 (converted)
Method in brief: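 GST-KRAS WT (aa1-188, 40 nM) and His6-SOS1 exchange domain (aa564-1049, 40 nM) were incubated 60 min at room temperature with compound dose response in HEPES pH7.3 buffer with 10 mM EDTA and 100 mM KF. Anti-GST-Eu(K)/anti-6His-XL665 HTRF was read after 4 hr, and IC50 came from a four-parameter fit (≥2 replicates).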

Chain of SOS1/KRAS WT (Q07889 564-1049): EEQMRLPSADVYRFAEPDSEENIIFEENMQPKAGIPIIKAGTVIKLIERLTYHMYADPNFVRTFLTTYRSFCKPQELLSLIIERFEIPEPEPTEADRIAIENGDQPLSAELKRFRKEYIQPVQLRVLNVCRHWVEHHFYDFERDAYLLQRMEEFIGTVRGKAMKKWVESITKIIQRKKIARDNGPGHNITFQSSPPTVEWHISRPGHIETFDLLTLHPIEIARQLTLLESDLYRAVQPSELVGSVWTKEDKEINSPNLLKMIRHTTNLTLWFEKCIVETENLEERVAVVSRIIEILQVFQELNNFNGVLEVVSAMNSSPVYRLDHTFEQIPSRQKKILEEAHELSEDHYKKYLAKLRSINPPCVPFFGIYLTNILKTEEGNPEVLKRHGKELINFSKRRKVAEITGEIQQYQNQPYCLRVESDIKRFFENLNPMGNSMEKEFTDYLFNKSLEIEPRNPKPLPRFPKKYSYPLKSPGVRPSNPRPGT

IC50 [µM] | SMILES
0.0209 | CCOC1(C)C(=O)N(C)c2cc3c(C)nnc(N[C@H](C)c4cccc(C(F)(F)CO)c4)c3cc21 (stereo partly drawn) [Compound 195, 3-ethoxy-1,3,8-trimethyl-5-[[(1R)-1-[3-(1,1-difluoro-2-hydroxy-ethyl)phenyl]ethyl]amino]pyrrolo [3,2-g]phthalazin-2-one]
0.0251 | CCC1(OC)C(=O)N(C)c2cc3c(C)nnc(N[C@H](C)c4cccc(C(F)(F)CO)c4)c3cc21 (stereo partly drawn) [Compound 196, 5-[[(1R)-1-[3-(1,1-difluoro-2-hydroxy-ethyl)phenyl]ethyl]amino]-3-ethyl-3-methoxy-1,8-dimethyl-pyrrolo[2,3-g]phthalazin-2-one]
0.0145 | CCC1(OC)C(=O)N(C)c2cc3c(C)nnc(N[C@H](C)c4cccc(C(F)(F)CO)c4F)c3cc21 (stereo partly drawn) [Compound 197, 5-[[(1R)-1-[3-(1,1-difluoro-2-hydroxy-ethyl)-2-fluoro-phenyl]ethyl]amino]-3-ethyl-3-methoxy-1,8-dimethyl-pyrrolo[2,3-g]phthalazin-2-one]
0.0195 | CCC1(OC)C(=O)N(C)c2cc3c(C)nnc(N[C@H](C)c4cccc(C(F)(F)CO)c4C)c3cc21 (stereo partly drawn) [Compound 198, 5-[[(1R)-1-[3-(1,1-difluoro-2-hydroxy-ethyl)-2-methyl-phenyl]ethyl]amino]-3-ethyl-3-methoxy-1,8-dimethyl-pyrrolo[2,3-g]phthalazin-2-one]
0.0107 | CCC1(OC)C(=O)N(C)c2cc3c(N[C@H](C)c4cccc(C(F)(F)C(C)(C)O)c4)nnc(C)c3cc21 (stereo partly drawn) [Compound 202, 3-ethyl-3-methoxy-1,5-dimethyl-8-[[(1R)-1-[3-(1,1-difluoro-2-hydroxy-2-methyl-propyl)phenyl]ethyl]amino]pyrrolo [2,3-g]phthalazin-2-one]
0.0117 | CCC1(OC)C(=O)N(C)c2cc3c(N[C@H](C)c4cccc(C(F)(F)CO)c4C)nnc(C)c3cc21 (stereo partly drawn) [Compound 203, 3-ethyl-3-methoxy-1,5-dimethyl-8-[[(1R)-1-[3-(1,1-difluoro-2-hydroxy-ethyl)-2-methyl-phenyl]ethyl]amino]pyrrolo[2,3-g]phthalazin-2-one]
0.01 | CCC1(OC)C(=O)N(C)c2cc3c(N[C@H](C)c4cccc(C(F)(F)C(C)(C)O)c4F)nnc(C)c3cc21 (stereo partly drawn) [Compound 204, 3-ethyl-3-methoxy-1,5-dimethyl-8-[[(1R)-1-[3-(1,1-difluoro-2-hydroxy-2-methyl-propyl)-2-fluoro-phenyl]ethyl]amino]pyrrolo[2,3-g]phthalazin-2-one]
0.0145 | CCC1(OC)C(=O)N(C)c2cc3c(N[C@H](C)c4cccc(C(F)(F)CO)c4)nnc(C)c3cc21 (stereo partly drawn) [Compound 206, 3-ethyl-3-methoxy-1,5-dimethyl-8-[[(1R)-1-[3-(1,1-difluoro-2-hydroxy-ethyl)phenyl]ethyl]amino]pyrrolo [2,3-g]phthalazin-2-one]
0.00851 | CCC1(OC)C(=O)N(C)c2cc3c(N[C@H](C)c4cccc(C(F)(F)CO)c4F)nnc(C)c3cc21 (stereo partly drawn) [Compound 207, 3-ethyl-3-methoxy-1,5-dimethyl-8-[[(1R)-1-[3-(1,1-difluoro-2-hydroxy-ethyl)-2-fluoro-phenyl]ethyl]amino]pyrrolo[2,3-g]phthalazin-2-one]
0.00955 | CCC1(OC)C(=O)N(C)c2cc3c(N[C@H](C)c4cccc(C(F)(F)C(C)(C)O)c4C)nnc(C)c3cc21 (stereo partly drawn) [Compound 209, 3-ethyl-3-methoxy-1,5-dimethyl-8-[[(1R)-1-[3-(1,1-difluoro-2-hydroxy-2-methyl-propyl)-2-methyl-phenyl]ethyl]amino]pyrrolo[2,3-g]phthalazin-2-one]

Continued, compound first:

SMILES | IC50 [µM]
Cc1nnc(N[C@H](C)c2cccc(C(F)(F)C(C)(C)O)c2F)c2cc3c(cc12)C1(CCCC1)C(=O)N3C [Compound 194, 1′,5′-dimethyl-8′-[[(1R)-1-[3-(1,1-difluoro-2-hydroxy-2-methyl-propyl)-2-fluoro-phenyl]ethyl]amino]spiro [cyclopentane-1,3′-pyrrolo[2,3-g]phthalazine]-2′-one] | 0.00851
CCOC1(C)C(=O)N(C)c2cc3c(C)nnc(N[C@H](C)c4cccc(C(F)(F)CO)c4C)c3cc21 (stereo partly drawn) [Compound 199, 3-ethoxy-1,3,8-trimethyl-5-[[(1R)-1-[3-(1,1-difluoro-2-hydroxy-ethyl)-2-methyl-phenyl]ethyl]amino]pyrrolo[3,2-g]phthalazin-2-one] | 0.0219
CCc1nnc(N[C@H](C)c2cccc(C(F)(F)C(C)(C)O)c2F)c2cc3c(cc12)C(C)(OC)C(=O)N3C (stereo partly drawn) [Compound 200, 5-ethyl-3-methoxy-1,3-dimethyl-8-[[(1R)-1-[3-(1,1-difluoro-2-hydroxy-2-methyl-propyl)-2-fluoro-phenyl]ethyl]amino]pyrrolo[2,3-g]phthalazin-2-one] | 0.0132
CCOC1(C)C(=O)N(C)c2cc3c(C)nnc(N[C@H](C)c4cccc(C(F)(F)CO)c4F)c3cc21 (stereo partly drawn) [Compound 201, 3-ethoxy-1,3,8-trimethyl-5-[[(1R)-1-[3-(1,1-difluoro-2-hydroxy-ethyl)-2-fluoro-phenyl]ethyl]amino]pyrrolo[3,2-g]phthalazin-2-one] | 0.0182
Cc1nnc(N[C@H](C)c2cccc(C(F)F)c2)c2cc3c(cc12)n(C)c(=O)n3C(C)(C)C [Compound 205, 3-tert-butyl-5-[[(1R)-1-[3-(difluoromethyl)phenyl]ethyl]amino]-1,8-dimethyl-imidazo[4,5-g]phthalazin-2-one] | 0.0117
Cc1c([C@@H](C)Nc2nnc(C)c3cc4c(cc23)n(C2CC2)c(=O)n4C)cccc1C(F)(F)C(C)(C)O [Compound 210, 3-cyclopropyl-5-[[(1R)-1-[3-(1,1-difluoro-2-hydroxy-2-methyl-propyl)-2-methyl-phenyl]ethyl]amino]-1,8-dimethyl-imidazo[4,5-g]phthalazin-2-one] | 0.0132
Cc1c(C(F)F)cccc1[C@@H](C)Nc1nnc(C)c2cc3c(cc12)n(C)c(=O)n3C [Compound 211, 5-[[(1R)-1-[3-(difluoromethyl)-2-methyl-phenyl]ethyl]amino]-1,3,8-trimethyl-imidazo[4,5-g]phthalazin-2-one] | 0.00977
Cc1cc([C@@H](C)Nc2nnc(C)c3cc4c(cc23)n(C)c(=O)n4C)c(C)c(C(F)(F)CO)c1 [Compound 212, 5-[[(1R)-1-[3-(1,1-difluoro-2-hydroxy-ethyl)-2,5-dimethyl-phenyl]ethyl]amino]-1,3,8-trimethyl-imidazo[4,5-g]phthalazin-2-one] | 0.0126
Cc1c(C(F)F)cccc1[C@@H](C)Nc1nnc(C)c2cc3c(cc12)n(C1CC1)c(=O)n3C [Compound 213, 3-cyclopropyl-5-[[(1R)-1-[3-(difluoromethyl)-2-methyl-phenyl]ethyl]amino]-1,8-dimethyl-imidazo[4,5-g]phthalazin-2-one] | 0.011
